This is an account of results in publication PMC3495945, “Org 214007-0: A Novel Non-Steroidal Selective Glucocorticoid Receptor Modulator with Full Anti-Inflammatory Properties and Improved Therapeutic Index” (PLoS ONE, 2012).

The term EC50 denotes the concentration needed to bring the measured effect to its halfway point. As usually defined, the IC50 is the concentration that inhibits the measured activity by half.

For test [1], the target named is T1, human androgen receptor (AR) (Homo sapiens, UniProt P10275).
T1 construct: expressed in transfected cells; host or cells: CHO K1
T1 sequence (P10275 1-920): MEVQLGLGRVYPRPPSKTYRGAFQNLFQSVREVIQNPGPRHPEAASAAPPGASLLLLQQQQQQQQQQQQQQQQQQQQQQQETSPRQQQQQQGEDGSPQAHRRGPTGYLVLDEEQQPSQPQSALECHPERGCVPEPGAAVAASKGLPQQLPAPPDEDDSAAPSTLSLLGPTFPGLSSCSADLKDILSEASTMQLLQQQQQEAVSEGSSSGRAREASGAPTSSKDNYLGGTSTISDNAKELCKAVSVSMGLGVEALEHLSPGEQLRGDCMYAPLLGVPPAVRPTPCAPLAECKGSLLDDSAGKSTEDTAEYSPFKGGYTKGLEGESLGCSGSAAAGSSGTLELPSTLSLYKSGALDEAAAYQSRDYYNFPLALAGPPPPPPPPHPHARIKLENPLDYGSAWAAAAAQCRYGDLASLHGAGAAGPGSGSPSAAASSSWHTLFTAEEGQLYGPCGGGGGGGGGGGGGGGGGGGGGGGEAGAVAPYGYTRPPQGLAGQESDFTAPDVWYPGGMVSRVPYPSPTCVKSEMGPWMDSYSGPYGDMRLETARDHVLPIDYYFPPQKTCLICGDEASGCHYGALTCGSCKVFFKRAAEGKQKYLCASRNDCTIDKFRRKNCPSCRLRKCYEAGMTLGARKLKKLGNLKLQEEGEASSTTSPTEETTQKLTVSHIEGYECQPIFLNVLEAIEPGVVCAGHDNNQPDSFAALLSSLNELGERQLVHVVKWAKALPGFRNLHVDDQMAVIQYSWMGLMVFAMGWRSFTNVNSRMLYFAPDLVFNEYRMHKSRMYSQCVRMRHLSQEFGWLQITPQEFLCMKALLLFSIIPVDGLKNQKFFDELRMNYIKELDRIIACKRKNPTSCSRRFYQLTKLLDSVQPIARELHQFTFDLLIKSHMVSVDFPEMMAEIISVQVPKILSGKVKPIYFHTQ
The test can be described thus: CHO steroid receptor reporter assay, AR / MMTV-Luc. Format: cell-based. An excerpt: For monitoring both human steroid receptor agonistic as well as antagonistic activity of compounds, Chinese hamster ovary (CHO) K1 cells stably co-transfected with the specific human steroid receptor and its respective reporter construct were used (as previously described).
For human glucocorticoid receptor (GR)-specific activity CHO-GR B4.8 cells containing both recombinant human GR as well as a reporter construct consisting of the mouse mammary tumor virus (MMTV) promotor and the luciferase reporter gene, were used. Compound was incubated alone (in the agonistic setup) or with 50 nM dexamethasone (in the antagonistic setup) overnight. Hereafter, 200 µl medium was removed and 50 µl luciferine substrate solution from the LucLite luminescence kit (Packard, Meriden, USA) was added. […] Percentage maximal antagonistic efficacy was related to the maximal antagonistic efficacy of reference GR antagonist Org 34116. Similar procedures were followed for the other human steroid receptor assays (for more detailed information see Supportive Information) (SI text).
Similar procedures were followed for the other human steroid receptor assays containing combinations of human progesterone receptor B (PR-B) and MMTV-Luc, human androgen receptor (AR) and MMTV-Luc, human chimeric glucocorticoid-mineralocorticoid receptor (GGM, Trapp et al. (1994), Neuron 13: 1457) and MMTV-Luc, human estrogen receptor alpha (ERα) and rat oxytocin-Luc (45), and human estrogen receptor beta (ERβ) and rat oxytocin-Luc, respectively.
(In general: Reporter assays use an easily measured gene product as a stand-in for the process of interest.)

In test [2] the test system is endometrium in estrogen-primed immature rabbits. Nature of the test: McPhail test (agonistic, progestational activity). The note with it: 0-4 scale; 5 days; MPA 0.05 mg/kg/day, Org 214007-0 0.5 mg/kg/day; n=2. Type of test: in vivo, rabbit. Here is the method: The McPhail (or anti-McPhail) test was used to evaluate potential progestational (or anti-progestational) activity of Org 214007-0 on the endometrium in estrogen-primed immature rabbits after once-daily administration. The female NZW rabbits were housed in pairs in a light- and temperature-controlled room, fed daily with 40 - 50 g standard pelleted food and with free access to tap-water. Before treatment with compounds rabbits were primed daily in the morning with a subcutaneous dose of 2 μg estradiol benzoate for 8 days. […] Transverse sections were prepared, stained with haematoxylin-eosin and evaluated microscopically. Endometrial development was scored on a 0-4 scale as follows: score 0: no development of glands; score 1: start of development of glands; score 2: clear-cut development of glands with ducts beginning to branch; score 3: about 2/3 of stroma bearing glandual tissue; score 4: more than 2/3 of stroma bearing glandular tissue. A score of 2 or higher in both rabbits was evaluated as a positive resonse.
For both the agonistic and antagonistic test immature female NZW rabbits (n=2 per treatment group) were primed with estrogen. […] One day after the last treatment the uterus was dissected and endometrial development was scored on a 0-4 scale. […]

Bounds are passed on as bounds.

In the case of `Cc1nnsc1C(=O)N[C@H]1CCN2c3ccc(C#N)cc3[C@@H](C)c3ccccc3[C@@H]2C1` [Org 214007-0], the EC50 in test [1] (read-out: EC50 (agonist)) is over 100 nM. Also, in test [1] (read-out: IC50 (antagonist)), the IC50 was over 1000 nM. Besides, in test [1] (relative to reference compound), the “% agonist potency” value is given as under 0.13% and the “% antagonist potency” value is reported as under 3.83%. Moreover, in test [2], the “endometrial development score, agonistic test” value is on record as 0.5.
